Experimental data: article PMC3914206

Assays:
Format in all cases: binding
Details in all cases: Compound Concentration 10 µM
panel of 442 kinases [1] = molecular target: T1, panel of 442 kinases (Homo sapiens, UniProt P35916)
T1 construct: purchased KINOMEscan
Text: (§1) We assessed the selectivity of members of this scaffold using the KINOMEscan methodology across a near comprehensive panel of 442 kinases [[18,27]].

panel of 442 kinases [2] = molecular target: T2, panel of 442 kinases (Homo sapiens, UniProt Q15759)
T2 construct: purchased KINOMEscan
Text: as §1

panel of 442 kinases [3] = molecular target: T3, panel of 442 kinases (Homo sapiens, UniProt Q00535)
T3 construct: purchased KINOMEscan
Text: as §1

panel of 442 kinases [4] = molecular target: T4, panel of 442 kinases (Homo sapiens, UniProt Q06187)
T4 construct: purchased KINOMEscan
Text: as §1

T4 sequence (Q06187 whole entry): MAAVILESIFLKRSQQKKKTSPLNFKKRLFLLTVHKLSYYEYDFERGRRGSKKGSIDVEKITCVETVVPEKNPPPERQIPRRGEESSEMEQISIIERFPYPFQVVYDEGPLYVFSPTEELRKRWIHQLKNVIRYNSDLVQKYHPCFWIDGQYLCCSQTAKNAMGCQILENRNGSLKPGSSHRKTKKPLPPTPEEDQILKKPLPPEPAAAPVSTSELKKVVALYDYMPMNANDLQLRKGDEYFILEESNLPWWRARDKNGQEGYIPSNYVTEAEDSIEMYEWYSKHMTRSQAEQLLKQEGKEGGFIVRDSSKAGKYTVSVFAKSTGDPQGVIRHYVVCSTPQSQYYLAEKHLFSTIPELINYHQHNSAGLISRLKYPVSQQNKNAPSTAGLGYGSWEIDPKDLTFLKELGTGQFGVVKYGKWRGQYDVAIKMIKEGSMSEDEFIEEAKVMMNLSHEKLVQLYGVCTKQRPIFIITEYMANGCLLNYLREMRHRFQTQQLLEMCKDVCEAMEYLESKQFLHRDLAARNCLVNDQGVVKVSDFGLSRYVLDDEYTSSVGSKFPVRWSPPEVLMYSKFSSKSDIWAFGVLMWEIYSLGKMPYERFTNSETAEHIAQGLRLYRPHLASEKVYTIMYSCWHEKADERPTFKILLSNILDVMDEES
T3 sequence (Q00535 whole entry): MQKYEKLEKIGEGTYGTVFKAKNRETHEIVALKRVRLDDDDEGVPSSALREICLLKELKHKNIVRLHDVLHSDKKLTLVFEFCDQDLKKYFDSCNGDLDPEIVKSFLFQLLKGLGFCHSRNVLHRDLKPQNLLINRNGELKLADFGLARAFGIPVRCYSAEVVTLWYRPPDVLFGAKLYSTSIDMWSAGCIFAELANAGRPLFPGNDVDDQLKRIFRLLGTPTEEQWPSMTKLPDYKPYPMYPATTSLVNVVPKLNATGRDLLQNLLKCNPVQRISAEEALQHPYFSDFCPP
T2 sequence (Q15759 whole entry): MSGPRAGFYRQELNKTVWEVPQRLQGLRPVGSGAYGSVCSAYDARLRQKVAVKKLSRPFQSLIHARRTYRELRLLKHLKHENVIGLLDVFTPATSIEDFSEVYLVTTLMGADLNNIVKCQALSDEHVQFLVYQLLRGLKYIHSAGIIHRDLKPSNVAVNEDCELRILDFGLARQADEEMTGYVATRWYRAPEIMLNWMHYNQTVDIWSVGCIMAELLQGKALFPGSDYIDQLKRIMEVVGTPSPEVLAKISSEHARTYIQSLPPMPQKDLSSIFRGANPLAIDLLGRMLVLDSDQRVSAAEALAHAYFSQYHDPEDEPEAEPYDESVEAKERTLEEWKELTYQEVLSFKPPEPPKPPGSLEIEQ
T1 sequence (P35916 25-1363): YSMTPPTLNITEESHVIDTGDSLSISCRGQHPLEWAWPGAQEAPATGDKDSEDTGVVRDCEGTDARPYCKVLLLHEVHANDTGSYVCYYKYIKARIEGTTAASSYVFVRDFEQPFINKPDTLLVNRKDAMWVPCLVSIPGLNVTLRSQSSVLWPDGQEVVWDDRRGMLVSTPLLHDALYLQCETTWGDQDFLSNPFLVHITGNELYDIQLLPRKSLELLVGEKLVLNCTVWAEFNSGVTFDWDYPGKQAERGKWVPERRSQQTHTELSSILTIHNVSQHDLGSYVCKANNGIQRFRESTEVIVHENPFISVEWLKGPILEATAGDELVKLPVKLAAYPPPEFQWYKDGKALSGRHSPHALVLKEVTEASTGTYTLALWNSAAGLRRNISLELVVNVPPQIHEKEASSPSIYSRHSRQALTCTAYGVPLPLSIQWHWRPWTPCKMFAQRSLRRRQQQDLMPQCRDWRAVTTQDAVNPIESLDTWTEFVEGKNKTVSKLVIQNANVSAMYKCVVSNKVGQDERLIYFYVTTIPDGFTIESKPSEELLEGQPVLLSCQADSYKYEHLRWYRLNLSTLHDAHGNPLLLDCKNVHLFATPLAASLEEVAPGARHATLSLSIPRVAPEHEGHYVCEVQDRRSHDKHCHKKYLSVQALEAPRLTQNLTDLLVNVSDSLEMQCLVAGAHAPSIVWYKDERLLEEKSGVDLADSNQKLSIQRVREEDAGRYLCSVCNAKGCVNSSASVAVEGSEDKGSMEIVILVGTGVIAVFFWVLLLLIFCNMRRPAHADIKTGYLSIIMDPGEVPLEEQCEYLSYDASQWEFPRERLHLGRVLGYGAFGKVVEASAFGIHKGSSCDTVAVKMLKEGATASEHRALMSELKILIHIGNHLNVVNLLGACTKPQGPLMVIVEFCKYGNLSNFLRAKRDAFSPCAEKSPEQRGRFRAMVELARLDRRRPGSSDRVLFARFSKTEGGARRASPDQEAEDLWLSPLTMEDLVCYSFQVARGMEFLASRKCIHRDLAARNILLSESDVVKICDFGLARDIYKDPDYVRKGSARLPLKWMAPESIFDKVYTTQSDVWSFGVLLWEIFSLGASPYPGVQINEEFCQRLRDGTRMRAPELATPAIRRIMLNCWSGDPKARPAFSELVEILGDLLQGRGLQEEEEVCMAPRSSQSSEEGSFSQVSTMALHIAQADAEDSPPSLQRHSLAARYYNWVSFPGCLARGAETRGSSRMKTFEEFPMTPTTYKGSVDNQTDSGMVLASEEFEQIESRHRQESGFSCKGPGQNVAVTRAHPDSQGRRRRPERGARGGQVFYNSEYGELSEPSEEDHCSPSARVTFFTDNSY

Row | Structure (SMILES) | KINOMEscan: FLT4 (panel of 442 kinases [1]) | KINOMEscan: p38-beta (panel of 442 kinases [2]) | KINOMEscan: CDK5 (panel of 442 kinases [3]) | KINOMEscan: BTK (panel of 442 kinases [4])
1 | COc1cc(C(=O)N2CCC(N3CCN(C)CC3)CC2)ccc1Nc1ncc2c(n1)N(C)c1ccccc1C(=O)N2C [15 (LRRK2-IN-1)] | 100 | 60 | 81 | 100
2 | CCOc1cc(C(=O)N2CCC(N3CCN(C)CC3)CC2)ccc1Nc1ncc2c(n1)N(C1CCCC1)c1ccccc1C(=O)N2C [Compound 26] | 100 | 81 | 100 | 100
3 | COc1cc(C(=O)N2CCC(N3CCN(C)CC3)CC2)ccc1Nc1ncc2c(n1)N1CCc3cccc(c31)C(=O)N2C [Compound 24] | – | 56 | – | –
4 | COc1cc(C(=O)N2CCC(N3CCN(C)CC3)CC2)ccc1Nc1ncc2c(n1)N(C1CCCC1)c1ccccc1C(=O)N2C [Compound 25, 11-cyclopentyl-2-((2-methoxy-4-(4-(4-methylpiperazin-1-yl)piperidine-1-carbonyl)phenyl)amino)-5-methyl-5H-benzo[e]pyrimido[5,4-b][1,4]diazepin-6(11H)-one] | 100 | 56 | 94 | 98
